# According to patent US9157904B2, “Wnt antagonists and methods of treatment and screening” (OncoMed Pharmaceuticals, Inc., priority 2010, dated 2015):
# Key:
# PN4 pancreatic tumors = assay: In vivo limiting dilution assay of treated PN4 tumors; set-up: species or system NOD/SCID mice; settings: day 75 after injection of 30, 90, 270 cells, control 7 out of 30
# Source text: Limiting dilution assays (LDA) can be used to assess the effect of therapeutic agents on solid tumor cancer stem cells and on the tumorigenicity of a tumor comprising the cancer stem cells. Such assays can be used to determine the frequency of cancer stem cells in tumors from animals treated with the FZD8-Fc fusion protein or other agent and to compare that frequency to the frequency of cancer stem cells in tumors from control animals. Control and treated tumors from the PN4 xenograft study described above were harvested at the end of the study (day 85). The tumors were processed and dissociated into single cells. […] The human cells in the suspension were harvested, counted, and stained for cell surface markers and appropriate cell doses (30, 90, and 270 cells) in FACS buffer were mixed in a 1:1 mixture with Matrigel and injected subcutaneously in NOD/SCID mice (10 mice per cell dose per treatment group). […] At the desired time point, the percentage of mice with detectable tumors was determined in all groups injected with FZD8-Fc-treated tumor cells and compared to the percentage of mice with detectable tumors in the controls. For example, the number of mice injected with 125 control antibody-treated tumor cells that have detectable tumors is determined and compared to the number of mice injected with 125 FZD8-Fc treated tumor cells that have detectable tumors. […]
# PN21 pancreatic tumors = assay: In vivo limiting dilution assay of treated PN21 tumors; set-up: species or system NOD/SCID mice; settings: day 72, L-Calc
# Source text: As described above in Example 3, a limiting dilution assays was used to assess the effect of treatment with FZD8-Fc alone or in combination with gemcitabine on solid tumor cancer stem cells in the PN21 pancreatic tumor model.
# Control and treated tumors from the PN21 xenograft study described above were harvested at the end of the study. The tumors were processed and dissociated into single cells. […] The human cells in the suspension were harvested, counted, and stained for cell surface markers and appropriate cell doses (30, 90, and 270 cells) in FACS buffer were mixed in a 1:1 mixture with Matrigel and injected subcutaneously in NOD/SCID mice (10 mice per cell dose per treatment group). […]
# At the desired time point, the percentage of mice with detectable tumors was determined in all groups injected with treated tumor cells and compared to the percentage of mice with detectable tumors in control treated cells. For example, the number of mice injected with 125 control antibody-treated tumor cells that have detectable tumors is determined and compared to the number of mice injected with 125 FZD8-Fc treated tumor cells that have detectable tumors.
# On day 72 after injection of the cells, tumor take rates in the various groups were determined and the cancer stem cell frequency was calculated using L-Calc™ software (StemCell Technologies Inc.; www.stemcell.com).
# PN4 tumors = assay: Flow cytometry for ESA and CD44 on treated PN4 tumors; type: in vivo, NOD/SCID mice; settings: PN4 tumors harvested day 85, 5 tumors pooled; control antibody 12.7%
# Method: Control and treated tumors from the OMP-PN4 xenograft study described above were harvested at the end of the study (day 85). The tumors were processed and dissociated into single cells. Single cell suspensions derived from 5 tumors of each treatment group were pooled, and the pooled samples were then incubated on ice for 30 min with antibodies that bind mouse cells selectively (α-mouse CD45-biotin 1:200 dilution and rat α-mouse H2Kd-biotin 1:100 dilution, BioLegend, San Diego, Calif.), followed by addition of streptavidin-labeled magnetic beads (Invitrogen, Carlsbad, Calif.). Mouse cells were removed with the aid of a magnet. For analysis of human cell surface markers, the single tumor cell suspension was stained with anti-ESA (Biomeda, Hayward, Calif.) and anti-CD44 (BD Biosciences, San Jose, Calif.) antibodies which were directly conjugated to fluorochromes. Dead cells were excluded by using the viability dye DAPI. Flow cytometry was performed using a FACS Aria instrument (Becton Dickinson, Franklin Lakes, N.J.). Side scatter and forward scatter profiles were used to eliminate cell clumps.
compound,measurement,setting,value
"Nc1ccn([C@@H]2O[C@H](CO)[C@@H](O)C2(F)F)c(=O)n1 [gemcitabine, reference compound]",tumor take rate,PN4 pancreatic tumors,7 mice out of 30 mice
same,cancer stem cell frequency,PN21 pancreatic tumors,slightly increased
same,bulk tumor population expressing both ESA and CD44 at high levels (double positive population),PN4 tumors,13.9%
